Test results taken from ChEMBL document CHEMBL2331515, “Design, synthesis, and pharmacological characterization of novel endomorphin-1 analogues as extremely potent μ-opioid agonists” (J Med Chem, 2013).
Active and inactive are the calls of the source. No cut-off for these calls is given here.

Assays:
Mu-type opioid receptor [1] = biological target: Mu-type opioid receptor (Cavia porcellus, UniProt P97266); assay: Agonist activity at mu-type opioid receptor in guinea pig ileum assessed as inhibition of electrically evoked muscle contraction; format: tissue-based
Sequence of Mu-type opioid receptor (Cavia porcellus, UniProt P97266) (P97266 whole entry): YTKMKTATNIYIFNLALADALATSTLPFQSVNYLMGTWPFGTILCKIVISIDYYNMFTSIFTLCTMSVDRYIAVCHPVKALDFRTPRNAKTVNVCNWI

[2] = biological target: T1, Delta-type opioid receptor (Homo sapiens, UniProt P41143); assay: Agonist activity at Myc-tagged delta-type opioid receptor (unknown origin) expressed in HEK293 cells assessed as inhibition of forskolin-stimulated cAMP accumulation after 30 mins by liquid scintillation counting analysis; format: functional, cell-based
T1 sequence (P41143 whole entry): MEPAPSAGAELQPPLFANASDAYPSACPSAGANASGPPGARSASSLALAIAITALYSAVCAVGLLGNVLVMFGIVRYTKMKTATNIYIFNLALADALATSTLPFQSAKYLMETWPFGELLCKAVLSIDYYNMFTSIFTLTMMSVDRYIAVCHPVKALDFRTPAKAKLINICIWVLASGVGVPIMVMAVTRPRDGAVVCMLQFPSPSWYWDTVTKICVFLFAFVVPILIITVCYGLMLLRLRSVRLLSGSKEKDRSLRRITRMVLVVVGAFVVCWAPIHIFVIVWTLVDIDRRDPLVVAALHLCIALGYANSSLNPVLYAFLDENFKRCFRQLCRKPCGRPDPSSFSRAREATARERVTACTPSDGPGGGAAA

[3] = Selectivity ratio of Ki for kappa-type opioid receptor (unknown origin) to Ki for FLAG-tagged mu-type opioid receptor (unknown origin); conditions: Homo sapiens
Mu-type opioid receptor [4] = biological target: T2, Mu-type opioid receptor (Homo sapiens, UniProt P35372); assay: Displacement of [3H]DAMGO from FLAG-tagged mu-type opioid receptor (unknown origin) expressed in HEK293 cells after 60 mins by liquid scintillation counting analysis; format: cell-based
T2 sequence (P35372 whole entry): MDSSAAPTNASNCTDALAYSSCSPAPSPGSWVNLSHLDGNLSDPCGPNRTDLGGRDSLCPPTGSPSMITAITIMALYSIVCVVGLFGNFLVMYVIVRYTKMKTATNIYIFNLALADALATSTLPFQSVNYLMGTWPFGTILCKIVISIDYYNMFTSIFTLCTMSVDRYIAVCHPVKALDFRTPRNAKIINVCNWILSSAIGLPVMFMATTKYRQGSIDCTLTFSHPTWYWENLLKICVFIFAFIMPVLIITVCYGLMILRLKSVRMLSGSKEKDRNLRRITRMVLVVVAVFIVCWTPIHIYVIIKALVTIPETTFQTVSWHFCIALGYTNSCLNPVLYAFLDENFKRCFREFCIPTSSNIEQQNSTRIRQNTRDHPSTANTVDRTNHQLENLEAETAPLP

Homo sapiens = species: Homo sapiens; assay: Selectivity ratio of Ki for Myc-tagged delta-type opioid receptor (unknown origin) to Ki for FLAG-tagged mu-type opioid receptor (unknown origin)
[5] = biological target: Mu-type opioid receptor (Mus musculus) (UniProt P42866); assay: Agonist activity at mu-type opioid receptor in Kunming mouse vas deferens assessed as inhibition of electrically evoked muscle contraction in presence of naltrindole
Sequence of Mu-type opioid receptor (Mus musculus) (P42866 whole entry): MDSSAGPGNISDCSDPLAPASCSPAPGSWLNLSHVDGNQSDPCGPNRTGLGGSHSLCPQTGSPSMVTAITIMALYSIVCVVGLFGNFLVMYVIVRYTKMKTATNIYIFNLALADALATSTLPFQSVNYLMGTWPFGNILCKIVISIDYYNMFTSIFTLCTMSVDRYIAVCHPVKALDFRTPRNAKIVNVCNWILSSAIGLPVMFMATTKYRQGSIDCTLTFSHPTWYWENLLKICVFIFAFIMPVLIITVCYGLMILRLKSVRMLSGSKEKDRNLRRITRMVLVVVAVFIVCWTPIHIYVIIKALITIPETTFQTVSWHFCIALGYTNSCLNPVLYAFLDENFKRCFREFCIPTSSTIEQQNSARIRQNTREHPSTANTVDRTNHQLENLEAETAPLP

Mu-type opioid receptor [6] = biological target: T2, Mu-type opioid receptor; assay: Agonist activity at FLAG-tagged mu-type opioid receptor (unknown origin) expressed in HEK293 cells assessed as inhibition of forskolin-stimulated cAMP accumulation after 30 mins by liquid scintillation counting analysis; format: functional, cell-based
[7] = biological target: T1, Delta-type opioid receptor; assay: Agonist activity at Myc-tagged delta-type opioid receptor (unknown origin) expressed in HEK293 cells assessed as inhibition of forskolin-stimulated cAMP accumulation after 30 mins by liquid scintillation counting analysis relative to DAMGO; format: functional, cell-based
Mu-type opioid receptor [8] = biological target: T2, Mu-type opioid receptor; assay: Agonist activity at FLAG-tagged mu-type opioid receptor (unknown origin) expressed in HEK293 cells assessed as inhibition of forskolin-stimulated cAMP accumulation after 30 mins by liquid scintillation counting analysis relative to DAMGO; format: functional, cell-based
Mu-type opioid receptor [9] = biological target: Mu-type opioid receptor (Mus musculus, UniProt P42866); assay: Agonist activity at mu-type opioid receptor in Kunming mouse vas deferens assessed as inhibition of electrically evoked muscle contraction
Sequence of Mu-type opioid receptor (Mus musculus, UniProt P42866) (P42866 whole entry): as above

[10] = biological target: T1, Delta-type opioid receptor; assay: Displacement of [3H]DPDPE from Myc-tagged delta-type opioid receptor (unknown origin) expressed in HEK293 cells after 60 mins by liquid scintillation counting analysis; format: cell-based
[11] = biological target: Kappa-type opioid receptor (Homo sapiens, UniProt P41145); assay: Displacement of [3H]U69,593 from kappa-type opioid receptor (unknown origin) expressed in HEK293 cells after 60 mins by liquid scintillation counting analysis; format: cell-based
Sequence of Kappa-type opioid receptor (P41145 whole entry): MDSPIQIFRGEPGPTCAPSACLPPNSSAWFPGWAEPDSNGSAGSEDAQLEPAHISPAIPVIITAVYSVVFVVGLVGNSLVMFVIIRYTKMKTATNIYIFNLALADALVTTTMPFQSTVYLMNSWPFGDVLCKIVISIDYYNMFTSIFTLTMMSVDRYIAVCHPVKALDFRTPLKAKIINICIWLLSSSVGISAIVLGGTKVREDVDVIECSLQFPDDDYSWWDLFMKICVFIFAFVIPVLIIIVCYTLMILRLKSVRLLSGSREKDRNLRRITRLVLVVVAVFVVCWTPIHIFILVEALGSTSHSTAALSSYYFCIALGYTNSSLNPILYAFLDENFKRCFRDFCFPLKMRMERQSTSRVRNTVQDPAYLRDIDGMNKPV

Mus musculus [12] = assay: Antinociceptive activity in Kunming mouse assessed as tail withdrawal latency at 0.67 to 20 nmol/kg, icv by hot water tail-flick test; format: functional, organism-based; conditions: TDE = time-dependent effect
Mus musculus [13] = assay: Antinociceptive activity in Kunming mouse assessed as tail withdrawal latency at 2 mg/kg, iv after 15 to 20 mins by hot water tail-flick test relative to control; format: functional, organism-based; design: dose 2 mg/kg
[14] = Half life in mouse brain homogenate by RP-HPLC analysis; format: ADME, tissue-based
Mu-type opioid receptor [15] = biological target: T2, Mu-type opioid receptor; assay: Agonist activity at FLAG-tagged mu-type opioid receptor (unknown origin) expressed in HEK293 cells assessed as stimulation of ERK1/2 phosphorylation at 1 uM after 2 mins by Western blotting analysis; format: cell-based
Mus musculus [16] = assay: Antinociceptive activity in icv dosed Kunming mouse assessed as tail withdrawal latency by hot water tail-flick test in presence of naloxone; format: functional, organism-based
Mus musculus [17] = assay: Antinociceptive activity in icv dosed Kunming mouse assessed as tail withdrawal latency by hot water tail-flick test; format: functional; conditions: for ED50: central
Mus musculus [18] = assay: Antinociceptive activity in Kunming mouse assessed as tail withdrawal latency at 2 mg/kg, iv by hot water tail-flick test in presence of naloxone methiodide; format: functional, organism-based; design: dose 2 mg/kg
Mus musculus [19] = assay: Antinociceptive activity in Kunming mouse assessed as tail withdrawal latency at 2 mg/kg, iv by hot water tail-flick test in presence of naloxone; format: functional, organism-based; design: dose 2 mg/kg
Mu-type opioid receptor [20] = biological target: T2, Mu-type opioid receptor; assay: Agonist activity at FLAG-tagged mu-type opioid receptor (unknown origin) expressed in HEK293 cells assessed as stimulation of ERK1/2 phosphorylation at 1 uM after 10 mins by Western blotting analysis; format: cell-based; conditions: TDE = time-dependent effect

| SMILES | IC50 (Mu-type opioid receptor [1]) | Activity [2] | EC50 [2] | Ratio Ki [3] | Ki (Mu-type opioid receptor [4]) | Ratio Ki (Homo sapiens) | inhibition [5] | EC50 (Mu-type opioid receptor [6]) | inhibition (Mu-type opioid receptor [6]) | Emax [7] | Emax (Mu-type opioid receptor [8]) | IC50 (Mu-type opioid receptor [9]) | Ki [10] | Ki [11] | Activity (Mus musculus [12]) | Activity (Mus musculus [13]) | half-life [14] | Activity (Mu-type opioid receptor [15]) | Activity (Mus musculus [18]) | Activity (Mus musculus [19]) | further results |
| --- | --- | --- | --- | --- | --- | --- | --- | --- | --- | --- | --- | --- | --- | --- | --- | --- | --- | --- | --- | --- | --- |
| C=C(C(=O)O)[C@@H](NC(=O)[C@H](Cc1c[nH]c2ccccc12)NC(=O)[C@@H]1CCCN1C(=O)[C@@H](N)Cc1c(C)cc(O)cc1C)c1ccco1 | 0.767 nM | Dose-dependent effect | 48.9 nM | 4940 | 0.0405 nM | 548 | Active | 0.000516 nM | Dose-dependent effect | 76.3% | 96.5% | 0.533 nM | 22.2 nM | 200 nM | – | – | – | – | – | – | – |
| C=C(C(N)=O)[C@@H](NC(=O)[C@H](Cc1c[nH]c2ccccc12)NC(=O)[C@@H]1CCN(C(=O)[C@@H](N)Cc2c(C)cc(O)cc2C)C1)c1ccccc1 | 0.226 nM | Dose-dependent effect | 47.9 nM | 17600 | 0.00986 nM | 2770 | Active | – | Dose-dependent effect | 72.1% | 98.9% | 0.406 nM | 27.3 nM | 174 nM | tde | Active | > 10 h | Active | Active | inactive | Activity (Mus musculus [16]): inactive; Activity (Mus musculus [17]): Dose-dependent effect; ED50 (Mus musculus [17]): 0.000822 µmol/kg; Activity (Mu-type opioid receptor [20]): tde |
| C=C(C(N)=O)[C@@H](NC(=O)[C@H](Cc1c[nH]c2ccccc12)NC(=O)[C@@H]1CCN(C(=O)[C@@H](N)Cc2c(C)cc(O)cc2C)C1)c1ccco1 | 0.167 nM | Dose-dependent effect | 89.3 nM | 55100 | 0.00372 nM | 5320 | Active | – | Dose-dependent effect | 73.8% | 99.5% | 0.548 nM | 19.8 nM | 205 nM | tde | Active | > 10 h | Active | Active | inactive | Activity (Mus musculus [16]): inactive; Activity (Mus musculus [17]): Dose-dependent effect; ED50 (Mus musculus [17]): 0.000532 µmol/kg; Activity (Mu-type opioid receptor [20]): tde |
| C=C(C(N)=O)[C@@H](NC(=O)[C@H](Cc1c[nH]c2ccccc12)NC(=O)[C@H]1CCN(C(=O)[C@@H](N)Cc2c(C)cc(O)cc2C)C1)c1ccco1 | 0.834 nM | Dose-dependent effect | 47.3 nM | 14100 | 0.0128 nM | 2380 | Active | 0.000109 nM | Dose-dependent effect | 72.2% | 98.6% | 0.962 nM | 30.4 nM | 180 nM | tde | Active | > 10 h | Active | Active | inactive | Activity (Mus musculus [16]): inactive; Activity (Mus musculus [17]): Dose-dependent effect; ED50 (Mus musculus [17]): 0.00095 µmol/kg; Activity (Mu-type opioid receptor [20]): tde |
| C=C(C(N)=O)[C@@H](NC(=O)[C@H](Cc1c[nH]c2ccccc12)NC(=O)[C@@H]1CCN(C(=O)[C@@H](N)Cc2ccc(O)cc2)C1)c1ccccc1 | 1.82 nM | Dose-dependent effect | – | – | 0.296 nM | 9490 | Active | 0.0397 nM | Dose-dependent effect | – | 96.8% | 2.28 nM | 2810 nM | – | – | – | – | – | – | – | – |
| C=C(C(N)=O)[C@@H](NC(=O)[C@H](Cc1c[nH]c2ccccc12)NC(=O)[C@H]1CCN(C(=O)[C@@H](N)Cc2ccc(O)cc2)C1)c1ccccc1 | 3.21 nM | Dose-dependent effect | – | – | 0.574 nM | 9720 | Active | 0.057 nM | Dose-dependent effect | – | 95.5% | 4.89 nM | 5580 nM | – | – | – | – | – | – | – | – |
| C=C(C(N)=O)[C@@H](NC(=O)[C@H](Cc1c[nH]c2ccccc12)NC(=O)[C@@H]1CCN(C(=O)[C@@H](N)Cc2ccc(O)cc2)C1)c1ccco1 | 1.67 nM | Dose-dependent effect | – | – | 0.165 nM | 16800 | Active | 0.00853 nM | Dose-dependent effect | – | 96.2% | 2.91 nM | 2780 nM | – | – | – | – | – | – | – | – |
| C=C(C(N)=O)[C@@H](NC(=O)[C@H](Cc1c[nH]c2ccccc12)NC(=O)[C@H]1CCN(C(=O)[C@@H](N)Cc2ccc(O)cc2)C1)c1ccco1 | 8.12 nM | Dose-dependent effect | – | – | 0.758 nM | 9170 | Active | 0.0933 nM | Dose-dependent effect | – | 94.9% | 4.9 nM | 6950 nM | – | – | – | – | – | – | – | – |
| CN1CC[C@]23c4c5ccc(O)c4O[C@H]2[C@@H](O)C=C[C@H]3[C@H]1C5 | – | – | – | – | – | – | – | – | – | – | – | – | – | – | – | Active | – | – | Active | inactive | – |
| C=C(C(=O)O)[C@@H](NC(=O)[C@H](Cc1c[nH]c2ccccc12)NC(=O)[C@@H]1CCCN1C(=O)[C@@H](N)Cc1c(C)cc(O)cc1C)c1ccccc1 | 0.467 nM | Dose-dependent effect | 51.6 nM | 5960 | 0.0322 nM | 795 | Active | 0.00013 nM | Dose-dependent effect | 77.5% | 97.2% | 0.556 nM | 25.6 nM | 192 nM | – | – | – | – | – | – | – |
